SMILES strings stand for the structures.

Test [1] relates to K. pneumoniae (multi-resistant clinical isolate). The test is described as follows: checkerboard test, Meropenem/peptide combinations. Conditions: meropenem alone, denominator of FICA. It counts as cell-based, Klebsiella pneumoniae. Here is the method:
(§1) Only strains from clinical isolates of Gram-negative bacteria Klebsiella pneumoniae and Gram-positive Staphylococcus aureus multiresistant to antibiotics were chosen to carry out the combination tests between the peptides. The experiments were carried out according to the methodology of the test described as “checkerboard” or checkerboard [Huang, R.-y., et al., Isobologram Analysis: A Comprehensive Review of Methodology and Current Research. Frontiers in Pharmacology, 2019. 10: p. 1222] This test allows the determination of the fractional inhibitory concentration index (FICI) following Equation 3, which establishes the classification of the effects obtained as follows: synergy (FICI≤0.5), additive (0.5<FICI≤ 1), indifferent (1<FICI≤2) and antagonism (FICI>2).
(§2) Where: MICA: minimum inhibitory concentration of compound A; MICB: minimum inhibitory concentration of compound B; MICAB: minimum concentration of A that combined with B inhibits growth; MICBA: minimum concentration of B that combined with A inhibits growth. The checkerboard experiment was performed in sterile 96-well polypropylene plates (Eppendorf, Germany). Isolated colonies of each bacterium were used to create 1×10^5 CFU bacterial cultures in PBS, referred to as a working culture. In addition, 64 μM stock solutions of the peptides were prepared in PBS. Two-fold dilutions in PBS of each peptide were made in 50 μL final volume. […]

Test [2] concerns S. aureus (multi-resistant clinical isolate). The test is described as follows: checkerboard test, Meropenem/peptide combinations. Conditions: meropenem alone, denominator of FICA. Format: cell-based, Staphylococcus aureus. Here is the method: as §1, §2

As for `C[C@@H](O)[C@H]1C(=O)N2C(C(=O)O)=C(S[C@@H]3CN[C@H](C(=O)N(C)C)C3)[C@H](C)[C@H]12` [MER, Meropenem, reference compound], the “MICA (minimum inhibitory concentration of compound A)” value in test [1] and in test [2] was 8.0 µg/mL throughout.

The record behind these values is patent US20240239849A1, “PEPTIDE ENTITIES WITH ANTIMICROBIAL ACTIVITY AGAINST MULTI-DRUG RESISTANT PATHOGENS” (CENTRO DE INVESTIGACIÓN Y DESARROLLO DE MEDICAMENTOS. CIDEM, priority 2020, published 2024).
